According to the supplement of paper PMC10307832:

How the values were obtained:
Assay in all cases: relative viability (nuclei count vs DMSO), 5 days (fraction); higher = more cells survive
KN-93 + Crizotinib = compound: CN(C/C=C/C1=CC=C(C=C1)Cl)CC2=CC=CC=C2N(CCO)S(=O)(=O)C3=CC=C(C=C3)OC [KN-93] + C[C@@H](Oc1cc(-c2cnn(C3CCNCC3)c2)cnc1N)c1c(Cl)ccc(F)c1Cl [Crizotinib] (partner 1 µM)
How it was run: (§1)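 For relative viability, nuclei counts in treated wells were divided by those in vehicle wells. Lung cancer cell lines had been pin-tool dosed in 1536-well plates the day after seeding and cultured for 5 days, then fixed and stained in one step (final 0.05% Triton X-100, 1% formaldehyde, 1 ug/ml Hoechst) and imaged at 4×. Doses were one drug alone or a fixed anchor-drug dose plus five library-drug doses (not always all listed) in √10 steps, and values are duplicate-plate medians.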

KN-93 + Foretinib = compound: CN(C/C=C/C1=CC=C(C=C1)Cl)CC2=CC=CC=C2N(CCO)S(=O)(=O)C3=CC=C(C=C3)OC [KN-93] + COc1cc2c(Oc3ccc(NC(=O)C4(C(=O)Nc5ccc(F)cc5)CC4)cc3F)ccnc2cc1OCCCN1CCOCC1 [Foretinib] (partner 0.25 µM)
How it was run: as §1

KN-93 + Linsitinib = compound: CN(C/C=C/C1=CC=C(C=C1)Cl)CC2=CC=CC=C2N(CCO)S(=O)(=O)C3=CC=C(C=C3)OC [KN-93] + C[C@]1(O)C[C@@H](c2nc(-c3ccc4ccc(-c5ccccc5)nc4c3)c3c(N)nccn32)C1 [Linsitinib] (partner 1 µM)
How it was run: as §1

KN-93 + Phenformin = compound: CN(C/C=C/C1=CC=C(C=C1)Cl)CC2=CC=CC=C2N(CCO)S(=O)(=O)C3=CC=C(C=C3)OC [KN-93] + N=C(N)NC(=N)NCCc1ccccc1 [Phenformin] (partner 250 µM)
How it was run: as §1

KN-93 = compound: CN(C/C=C/C1=CC=C(C=C1)Cl)CC2=CC=CC=C2N(CCO)S(=O)(=O)C3=CC=C(C=C3)OC [KN-93]
How it was run: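 Cells of lung cancer lines were placed in 1536-well plates and kept overnight at 37 °C. Pinning then delivered five library-drug doses (not always all listed), spaced by √10, onto plates anchored with vehicle, and the cells were left 5 days without changing medium. One step fixed, permeabilised and stained them with Hoechst, and MetaXpress counted nuclei in 4× images. Viability, as a median over plates, is treated-well nuclei divided by vehicle-well nuclei, with acceptance only at control CV below 25% and at least one doubling.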

Cell Line	relative viability (KN-93 + Crizotinib; first compound 0.08 µM)	relative viability (KN-93 + Crizotinib; first compound 0.253 µM)	relative viability (KN-93 + Crizotinib; first compound 2.53 µM)	relative viability (KN-93 + Crizotinib; first compound 8 µM)	relative viability (KN-93 + Foretinib; first compound 0.08 µM)	relative viability (KN-93 + Foretinib; first compound 0.253 µM)	relative viability (KN-93 + Foretinib; first compound 2.53 µM)	relative viability (KN-93 + Foretinib; first compound 8 µM)	relative viability (KN-93 + Linsitinib; first compound 0.08 µM)	relative viability (KN-93 + Linsitinib; first compound 0.253 µM)	relative viability (KN-93 + Linsitinib; first compound 2.53 µM)	relative viability (KN-93 + Linsitinib; first compound 8 µM)	relative viability (KN-93 + Phenformin; first compound 0.08 µM)	relative viability (KN-93 + Phenformin; first compound 0.253 µM)	relative viability (KN-93 + Phenformin; first compound 2.53 µM)	relative viability (KN-93 + Phenformin; first compound 8 µM)	relative viability (KN-93; 0.08 µM)	relative viability (KN-93; 0.253 µM)	relative viability (KN-93; 2.53 µM)	relative viability (KN-93; 8 µM)
ABC-1	1.05	1.28	0.498	0.219	0.956	1.17	0.873	0.314	0.889	0.717	0.727	0.362	0.248	0.242	0.248	0.216	0.999	0.99	0.773	0.312
NCI-H1703	0.677	1.03	0.911	0.225	0.351	0.364	0.352	0.238	1.14		0.976	0.389					0.871	0.89	0.841	0.459
201T	1.01	1.05	1.01	0.973	1.06	0.711	1.08	0.566	1.04	0.968	0.995	0.837	0.47	0.424	0.51	0.452	1.03	0.85	0.958	0.684
NCI-H596	0.906	1.09	1.03	0.691	0.862	0.989	0.886	0.532	1	1.19	1.03	0.89	0.728	0.95	0.69	0.45	0.913	1.15	0.941	0.5
A549	0.847	1.05	0.944	0.28	0.911	1.14	0.995	0.585	0.519	0.722	0.746	0.476	0.183	0.347	0.922	0.132	0.79	1.06	1.26	0.553
SK-LU-1	0.834	1.26	0.915	0.673	0.768	1.05	0.938	0.48	1.06	1.12	1.21	0.602	0.494	0.811	0.475	0.391	0.8	1.26	1.16	0.759
NCI-H650	0.866	0.735	0.772	0.488	1.11	0.972	0.968	0.705	0.893	0.836	1.21	0.562	0.481	0.47	0.449	0.414	1.01	1.1	1.11	0.598
LC-2-ad	0.453	0.459	0.474	0.43	0.992	1.01	0.915	0.699	0.824	0.906	0.856	0.566	0.651	0.678	0.645	0.553	0.965	1.16	0.995	0.725
NCI-H1792		1.1	0.976	0.914						0.573	0.567	0.394	0.177		0.25	0.258	0.783	0.83	0.948	0.703
HCC-827	0.993	0.996	0.908	0.778	1.05	1.09	0.931	0.577	1.02	0.921	0.939	0.875	0.417	0.385	0.479	0.407	1.08	1.05	1.05	0.851
LOU-NH91	0.746	0.716	0.75	0.703	0.963	0.886	1.01	0.885	0.926	0.856	0.931	0.791	0.667	0.614	0.8	0.628	0.988	0.834	0.963	0.842
NCI-H1650	0.874	1.01	1.15	0.547	1.18	1.16	1.25	0.644					0.468	0.417	0.571	0.25	0.796	0.808	0.941	0.569
ChaGo-K-1	1.12	1.23	1.11	0.722	0.866	0.981	0.832	0.669					0.456	0.56	0.466	0.453	0.887	1.14	0.999	0.72
HCC-44	0.732	0.785	0.858	0.502					0.616	0.613	0.667	0.462	0.314	0.202	0.331	0.16	1.02	0.912	1.12	0.764
NCI-H1395					1.09	0.934	0.964	0.697	1.66	1.13	1.07	0.427	0.477	0.449	0.48	0.449	0.965	0.969	0.914	0.571
NCI-H1793					0.729	0.799	0.642	0.287		1.18	0.925	0.673	0.372	0.36	0.367	0.2	0.742	0.984	1.11	0.264
IA-LM	0.745	0.822	0.975	0.431		1.36	1.3	0.926	0.608	0.495	0.463	0.827					0.896	0.948	1.47	0.875
